# Source: ChEMBL document CHEMBL1201862, “PubChem BioAssay data set” (2004)
#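 48-hour exposure; five concentrations; linearly interpolated endpoints. Here, GI50 denotes the concentration required for 50% inhibition of growth.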 The source made the active and inactive calls. Rule as the data show it: active = GI50 up to about 1.1 µM and inactive = higher.
# Assays:
# Experiment in all cases: NCI tumour cell line growth inhibition, 48 h
# ACHN = test system: ACHN
# CCRF-CEM = test system: CCRF-CEM
# EKVX = test system: EKVX
# HCC 2998 = test system: HCC 2998
# HCT-116 = test system: HCT-116
# HCT-15 = test system: HCT-15
# M14 = test system: M14
# MDA-MB-231 = test system: MDA-MB-231
# Malme-3M = test system: Malme-3M
# NCI-H522 = test system: NCI-H522
# NCI/ADR-RES = test system: NCI/ADR-RES
# OVCAR-5 = test system: OVCAR-5
# OVCAR-8 = test system: OVCAR-8
# SK-MEL-2 = test system: SK-MEL-2
# SN12C = test system: SN12C
# SR = test system: SR
# SW-620 = test system: SW-620
# TK-10 = test system: TK-10
# U-251 = test system: U-251
# UO-31 = test system: UO-31
SMILES,GI50 (ACHN),GI50 (CCRF-CEM),GI50 (EKVX),GI50 (HCC 2998),GI50 (HCT-116),GI50 (HCT-15),GI50 (M14),GI50 (MDA-MB-231),GI50 (Malme-3M),GI50 (NCI-H522),GI50 (NCI/ADR-RES),GI50 (OVCAR-5),GI50 (OVCAR-8),GI50 (SK-MEL-2),GI50 (SN12C),GI50 (SR),GI50 (SW-620),GI50 (TK-10),GI50 (U-251),GI50 (UO-31)
CC(O)c1cc2c(s1)C(=O)c1ccsc1C2=O (stereo unspecified),0.117 µM (active),0.259 µM (active),0.229 µM (active),0.223 µM (active),0.21 µM (active),0.0409 µM,0.0593 µM (active),0.0964 µM (active),0.0197 µM (active),0.117 µM (active),0.211 µM (active),0.14 µM (active),0.22 µM (active),0.126 µM (active),0.104 µM (active),0.103 µM (active),0.138 µM (active),0.461 µM (active),0.0944 µM (active),0.212 µM (active)
C=C1C(=O)C2=CC1CCC(=O)C1(C)CCC(OC(C)=O)C(C)(C)C1CC2O (stereo unspecified),1.12 µM (inactive),0.392 µM (active),3.91 µM (inactive),1.95 µM (inactive),1.6 µM (inactive),0.552 µM,2.64 µM (inactive),4.65 µM (inactive),2.37 µM (inactive),0.522 µM (active),4.11 µM (inactive),5.32 µM (inactive),3.81 µM (inactive),5 µM (inactive),2.53 µM (inactive),0.347 µM (active),2.42 µM (inactive),5.86 µM (inactive),2.93 µM (inactive),2.06 µM (inactive)
N#CC1(Nc2ccc(-c3ccc(NC4(C#N)CCCC4)cc3)cc2)CCCC1,34.9 µM (inactive),0.0104 µM (active),> 100 µM (inactive),> 100 µM (inactive),> 100 µM (inactive),> 100 µM,> 100 µM (inactive),> 100 µM (inactive),> 100 µM (inactive),> 100 µM (inactive),> 100 µM (inactive),> 100 µM (inactive),> 100 µM (inactive),> 100 µM (inactive),> 100 µM (inactive),> 100 µM (inactive),> 100 µM (inactive),> 100 µM (inactive),> 100 µM (inactive),> 100 µM (inactive)
O=C(O)c1ccccc1/C=N\N=C1NCCCCN1,> 100 µM (inactive),> 100 µM (inactive),> 100 µM (inactive),> 100 µM (inactive),> 100 µM (inactive),> 100 µM,> 100 µM (inactive),> 100 µM (inactive),> 100 µM (inactive),> 100 µM (inactive),> 100 µM (inactive),> 100 µM (inactive),> 100 µM (inactive),> 100 µM (inactive),> 100 µM (inactive),> 100 µM (inactive),> 100 µM (inactive),> 100 µM (inactive),> 100 µM (inactive),> 100 µM (inactive)
CC(=O)OCC1OC(n2c3c(cc(C#N)c2=S)CCCCC3)C(OC(C)=O)C(OC(C)=O)C1OC(C)=O (stereo unspecified),> 100 µM (inactive),> 100 µM (inactive),,> 100 µM (inactive),> 100 µM (inactive),> 100 µM,> 100 µM (inactive),> 100 µM (inactive),> 100 µM (inactive),> 100 µM (inactive),> 100 µM (inactive),> 100 µM (inactive),> 100 µM (inactive),> 100 µM (inactive),> 100 µM (inactive),> 100 µM (inactive),,> 100 µM (inactive),> 100 µM (inactive),> 100 µM (inactive)
CC12CC(=O)C3C(C(=O)C1)C32C (stereo unspecified),> 100 µM (inactive),> 100 µM (inactive),> 100 µM (inactive),> 100 µM (inactive),> 100 µM (inactive),> 100 µM,> 100 µM (inactive),> 100 µM (inactive),20.5 µM (inactive),> 100 µM (inactive),> 100 µM (inactive),> 100 µM (inactive),> 100 µM (inactive),> 100 µM (inactive),> 100 µM (inactive),> 100 µM (inactive),> 100 µM (inactive),> 100 µM (inactive),> 100 µM (inactive),> 100 µM (inactive)
CS(=O)(=O)OCC1CCCCCCCCCCC12SCCCS2 (stereo unspecified),> 100 µM (inactive),> 100 µM (inactive),> 100 µM (inactive),> 100 µM (inactive),> 100 µM (inactive),> 100 µM,> 100 µM (inactive),> 100 µM (inactive),> 100 µM (inactive),> 100 µM (inactive),> 100 µM (inactive),> 100 µM (inactive),> 100 µM (inactive),> 100 µM (inactive),> 100 µM (inactive),> 100 µM (inactive),> 100 µM (inactive),> 100 µM (inactive),> 100 µM (inactive),> 100 µM (inactive)
O=C(NCCCNCCCCNCCCNC(=O)c1cc(-c2ccccc2)nc2ccccc12)c1cc(-c2ccccc2)nc2ccccc12,18.5 µM (inactive),1.88 µM (inactive),5.18 µM (inactive),2.01 µM (inactive),3.09 µM (inactive),20.1 µM,2.15 µM (inactive),7.06 µM (inactive),1.95 µM (inactive),2.01 µM (inactive),28.4 µM (inactive),2.05 µM (inactive),1.82 µM (inactive),1.62 µM (inactive),2.23 µM (inactive),1.97 µM (inactive),2.62 µM (inactive),8.07 µM (inactive),1.66 µM (inactive),20.9 µM (inactive)
Cc1cccc2c(N)c3cccc(C(=O)NCCN4CCOCC4)c3nc12,0.101 µM (active),0.248 µM (active),0.664 µM (active),1.48 µM (inactive),0.0889 µM (active),0.461 µM,0.495 µM (active),0.759 µM (active),0.28 µM (active),0.182 µM (active),4.35 µM (inactive),0.627 µM (active),0.249 µM (active),1.11 µM (active),0.364 µM (active),0.274 µM (active),0.166 µM (active),2.1 µM (inactive),0.531 µM (active),0.46 µM (active)
N#CCCN(CCC#N)c1ccc(/C=C2\SC(=S)NC2=O)cc1,41.5 µM (inactive),> 100 µM (inactive),> 100 µM (inactive),> 100 µM (inactive),> 100 µM (inactive),> 100 µM,> 100 µM (inactive),30.3 µM (inactive),> 100 µM (inactive),> 100 µM (inactive),> 100 µM (inactive),> 100 µM (inactive),44.2 µM (inactive),> 100 µM (inactive),> 100 µM (inactive),> 100 µM (inactive),> 100 µM (inactive),85.3 µM (inactive),20.3 µM (inactive),> 100 µM (inactive)
c1ccc2c(CCNC3=NCCO3)cccc2c1,> 10 µM (inactive),> 10 µM (inactive),> 10 µM (inactive),> 10 µM (inactive),> 10 µM (inactive),> 10 µM,> 10 µM (inactive),> 10 µM (inactive),> 10 µM (inactive),> 10 µM (inactive),> 10 µM (inactive),> 10 µM (inactive),> 10 µM (inactive),> 10 µM (inactive),,> 10 µM (inactive),> 10 µM (inactive),> 10 µM (inactive),> 10 µM (inactive),4.26 µM (inactive)
O=C(O)CCCN1CCCCC1,> 100 µM (inactive),> 100 µM (inactive),> 100 µM (inactive),> 100 µM (inactive),> 100 µM (inactive),> 100 µM,> 100 µM (inactive),> 100 µM (inactive),> 100 µM (inactive),> 100 µM (inactive),> 100 µM (inactive),> 100 µM (inactive),> 100 µM (inactive),> 100 µM (inactive),> 100 µM (inactive),> 100 µM (inactive),> 100 µM (inactive),> 100 µM (inactive),> 100 µM (inactive),> 100 µM (inactive)
Cc1ccc(CC(Cc2ccccc2C)C(=O)O)c(C(=O)O)c1 (stereo unspecified),> 100 µM (inactive),> 100 µM (inactive),> 100 µM (inactive),> 100 µM (inactive),> 100 µM (inactive),> 100 µM,> 100 µM (inactive),> 100 µM (inactive),> 100 µM (inactive),> 100 µM (inactive),> 100 µM (inactive),> 100 µM (inactive),> 100 µM (inactive),> 100 µM (inactive),> 100 µM (inactive),> 100 µM (inactive),> 100 µM (inactive),> 100 µM (inactive),> 100 µM (inactive),> 100 µM (inactive)
CC(C)c1ccc2c(c1)[C@@]1(C)CC[C@H](C)C(C)(C)C1CC2 (stereo partly specified),18.6 µM (inactive),23.7 µM (inactive),18.9 µM (inactive),20.9 µM (inactive),18.4 µM (inactive),18.1 µM,18.9 µM (inactive),19.5 µM (inactive),18.5 µM (inactive),27.4 µM (inactive),18.2 µM (inactive),24.4 µM (inactive),18.6 µM (inactive),26.4 µM (inactive),17.7 µM (inactive),27.5 µM (inactive),47.8 µM (inactive),17.6 µM (inactive),,37.9 µM (inactive)
O=C(O)CCC(=O)Nc1ccc2c(c1)S(=O)(=O)N(CC(=O)O)C2=O,> 100 µM (inactive),> 100 µM (inactive),> 100 µM (inactive),> 100 µM (inactive),> 100 µM (inactive),> 100 µM,> 100 µM (inactive),> 100 µM (inactive),39.2 µM (inactive),> 100 µM (inactive),> 100 µM (inactive),> 100 µM (inactive),> 100 µM (inactive),> 100 µM (inactive),> 100 µM (inactive),> 100 µM (inactive),> 100 µM (inactive),> 100 µM (inactive),> 100 µM (inactive),> 100 µM (inactive)
